Reference: patent US11512097B2, “Heterocyclic compounds as Delta-5 desaturase inhibitors and methods of use” (Amgen Inc., priority 2019, dated 2022)

Target: T1, Delta-5-Desaturase (D5D), membrane preparations of D5D-overexpressing HEK293 6E cells (Homo sapiens, UniProt O60427)
T1 construct: expressed in transfected cells; host or cells: HEK293 6E cells (membrane preparation)
Assay: In vitro measurement of Delta-5-Desaturase inhibitory activity using DGLA-CoA and Arachidonyl-CoA mass spectrometric assays
Assay type: biochemical
Conditions: D5D membrane 10 μg/mL, one-hour incubation, average of at least two independent runs
How it was run: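 Membranes from D5D-overexpressing HEK293 6E cells (10 μg/mL final) in pH 7.5 Tris buffer with MgCl2, octyl glucoside and TCEP were run with substrate solution holding 0.01 mM DGLA, NADH, ATP and CoA for 1 h at ambient temperature. Acetonitrile quench; DGLA-CoA and arachidonyl-CoA measured by RapidFire MRM-MS; 4-parameter IC50, ≥2 runs averaged.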

T1 sequence (O60427 whole entry, species assumed): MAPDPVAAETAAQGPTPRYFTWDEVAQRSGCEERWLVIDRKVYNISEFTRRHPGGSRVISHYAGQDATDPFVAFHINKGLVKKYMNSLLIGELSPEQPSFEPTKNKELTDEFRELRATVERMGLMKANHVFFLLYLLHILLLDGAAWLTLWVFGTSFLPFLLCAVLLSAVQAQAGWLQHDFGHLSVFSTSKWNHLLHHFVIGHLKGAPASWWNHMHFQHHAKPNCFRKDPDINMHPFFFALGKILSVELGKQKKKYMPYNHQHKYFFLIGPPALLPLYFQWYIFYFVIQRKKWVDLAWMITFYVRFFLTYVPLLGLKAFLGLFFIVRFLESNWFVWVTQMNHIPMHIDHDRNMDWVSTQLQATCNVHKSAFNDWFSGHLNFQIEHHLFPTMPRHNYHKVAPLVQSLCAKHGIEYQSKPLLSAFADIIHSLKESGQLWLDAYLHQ

Compound	IC50 [µM]
COC(=O)n1c(C)cn2c(=O)c(-c3cnn(CC(F)(F)C(F)(F)F)c3)c(C(F)(F)F)nc12 [Example 80, methyl 2-methyl-5-oxo-6-[1-(2,2,3,3,3-pentafluoropropyl)-1H-pyrazol-4-yl]-7-(trifluoromethyl)-1H,5H-imidazo[1,2-a]pyrimidine-1-carboxylate]	0.0547
Cc1cn2c(=O)c(-c3cnn(CCC(F)(F)F)c3)c(C(F)(F)F)nc2n1CC1CC1(F)F (stereo not drawn) [Example 81, 1-[(2,2-difluorocyclopropyl)methyl]-2-methyl-7-(trifluoromethyl)-6-[1-(3,3,3-trifluoropropyl)-1H-pyrazol-4-yl]-1H,5H-imidazo[1,2-a]pyrimidin-5-one]	0.105
Cc1cn2c(=O)c(-c3cnn(CCC(F)(F)F)c3)c(C(F)(F)F)nc2n1CC1CC(F)(F)C1 [Example 82, 1-[(3,3-difluorocyclobutyl)methyl]-2-methyl-7-(trifluoromethyl)-6-[1-(3,3,3-trifluoropropyl)-1H-pyrazol-4-yl]-1H,5H-imidazo[1,2-a]pyrimidin-5-one]	2.03
Cc1cn2c(=O)c(-c3cnn(CCC(F)(F)F)c3)c(C(F)(F)F)nc2n1CCO [Example 83, 1-(2-hydroxyethyl)-2-methyl-7-(trifluoromethyl)-6-[1-(3,3,3-trifluoropropyl)-1H-pyrazol-4-yl]-1H,5H-imidazo[1,2-a]pyrimidin-5-one]	0.0115
Cc1cn2c(=O)c(-c3cnn(CC(F)(F)C(F)(F)F)c3)c(C(F)(F)F)nc2n1CCN(C)C [Example 84, 1-[2-(dimethylamino)ethyl]-2-methyl-6-[1-(2,2,3,3,3-pentafluoropropyl)-1H-pyrazol-4-yl]-7-(trifluoromethyl)-1H,5H-imidazo[1,2-a]pyrimidin-5-one]	0.193
C#CCn1c(C)cn2c(=O)c(-c3cnn(CC(F)(F)C(F)(F)F)c3)c(C(F)(F)F)nc12 [Example 85, 2-methyl-6-[1-(2,2,3,3,3-pentafluoropropyl)-1H-pyrazol-4-yl]-1-(prop-2-yn-1-yl)-7-(trifluoromethyl)-1H,5H-imidazo[1,2-a]pyrimidin-5-one]	0.0071
Cc1cn2c(=O)c(-c3cnn(CC(F)(F)C(F)(F)F)c3)c(C(F)(F)F)nc2n1CC#N [Example 86, 2-{2-methyl-5-oxo-6-[1-(2,2,3,3,3-pentafluoropropyl)-1H-pyrazol-4-yl]-7-(trifluoromethyl)-1H,5H-imidazo[1,2-a]pyrimidin-1-yl}acetonitrile]	0.0109
Cc1cn2c(=O)c(-c3cnn(CCC(F)(F)F)c3)c(C(F)(F)F)nc2n1CC#N [Example 87, 2-[2-methyl-5-oxo-7-(trifluoromethyl)-6-[1-(3,3,3-trifluoropropyl)-1H-pyrazol-4-yl]-1H,5H-imidazo[1,2-a]pyrimidin-1-yl]acetonitrile]	0.0037
Cc1cn2c(=O)c(-c3cnn(CC(F)(F)C(F)(F)F)c3)c(C(F)(F)F)nc2n1CC(C)(C)O [Example 88, 1-(2-hydroxy-2-methylpropyl)-2-methyl-6-[1-(2,2,3,3,3-pentafluoropropyl)-1H-pyrazol-4-yl]-7-(trifluoromethyl)-1H,5H-imidazo[1,2-a]pyrimidin-5-one]	0.631
Cc1cn2c(=O)c(-c3cnn(CC(F)(F)C(F)(F)F)c3)c(C(F)(F)F)nc2n1CCC1(O)CC1 [Example 89, 1-[2-(1-hydroxycyclopropyl)ethyl]-2-methyl-6-[1-(2,2,3,3,3-pentafluoropropyl)-1H-pyrazol-4-yl]-7-(trifluoromethyl)-1H,5H-imidazo[1,2-a]pyrimidin-5-one]	0.0533
Cc1cn2c(=O)c(-c3cnn(CC(F)(F)C(F)(F)F)c3)c(C(F)(F)F)nc2n1CC1COC1 [Example 90, 2-methyl-1-[(oxetan-3-yl)methyl]-6-[1-(2,2,3,3,3-pentafluoropropyl)-1H-pyrazol-4-yl]-7-(trifluoromethyl)-1H,5H-imidazo[1,2-a]pyrimidin-5-one]	0.105
Cc1cn2c(=O)c(-c3cnn(CC(F)(F)C(F)(F)F)c3)c(C(F)(F)F)nc2n1C1COC1 [Example 91, 2-methyl-1-(oxetan-3-yl)-6-[1-(2,2,3,3,3-pentafluoropropyl)-1H-pyrazol-4-yl]-7-(trifluoromethyl)-1H,5H-imidazo[1,2-a]pyrimidin-5-one]	0.0101
Cc1cn2c(=S)c(-c3cnn(CC(F)(F)C(F)(F)F)c3)c(C(F)(F)F)nc2n1C [Example 92, 1,2-dimethyl-6-[1-(2,2,3,3,3-pentafluoropropyl)-1H-pyrazol-4-yl]-7-(trifluoromethyl)-1H,5H-imidazo[1,2-a]pyrimidine-5-thione]	0.132
Cc1cn2c(=O)c(-c3cnn(CC(F)(F)C(F)(F)F)c3)c(C(F)(F)F)nc2n1-c1ccccn1 [Example 93, 2-methyl-6-[1-(2,2,3,3,3-pentafluoropropyl)-1H-pyrazol-4-yl]-1-(pyridin-2-yl)-7-(trifluoromethyl)-1H,5H-imidazo[1,2-a]pyrimidin-5-one]	0.678
Cc1cn2c(=O)c(-c3cnn(CCC(F)(F)F)c3)c(C(F)(F)F)nc2n1-c1ccccn1 [Example 94, 2-methyl-1-(pyridin-2-yl)-7-(trifluoromethyl)-6-[1-(3,3,3-trifluoropropyl)-1H-pyrazol-4-yl]-1H,5H-imidazo[1,2-a]pyrimidin-5-one]	0.777
Cc1cn2c(=O)c(-c3cnn(CC(F)(F)C(F)(F)F)c3)c(C(F)(F)F)nc2n1-c1cnccn1 [Example 95, 2-methyl-6-[1-(2,2,3,3,3-pentafluoropropyl)-1H-pyrazol-4-yl]-1-(pyrazin-2-yl)-7-(trifluoromethyl)-1H,5H-imidazo[1,2-a]pyrimidin-5-one]	0.247
Cc1cccc(-n2c(C)cn3c(=O)c(-c4cnn(CC(F)(F)C(F)(F)F)c4)c(C(F)(F)F)nc23)n1 [Example 96, 2-methyl-1-(6-methylpyridin-2-yl)-6-[1-(2,2,3,3,3-pentafluoropropyl)-1H-pyrazol-4-yl]-7-(trifluoromethyl)-1H,5H-imidazo[1,2-a]pyrimidin-5-one]	0.0194
Cc1cn2c(=O)c(-c3cnn(CC(F)(F)C(F)(F)F)c3)c(C(F)(F)F)nc2n1-c1cnn(C)c1 [Example 97, 2-methyl-1-(1-methyl-1H-pyrazol-4-yl)-6-[1-(2,2,3,3,3-pentafluoropropyl)-1H-pyrazol-4-yl]-7-(trifluoromethyl)-1H,5H-imidazo[1,2-a]pyrimidin-5-one]	0.0293
Cc1cn2c(=O)c(-c3cnn(CC(F)(F)C(F)(F)F)c3)c(C(F)(F)F)nc2n1-c1cccnc1 [Example 98, 2-methyl-6-[1-(2,2,3,3,3-pentafluoropropyl)-1H-pyrazol-4-yl]-1-(pyridin-3-yl)-7-(trifluoromethyl)-1H,5H-imidazo[1,2-a]pyrimidin-5-one]	2.4
Cc1cn2c(=O)c(-c3cnn(CC(F)(F)C(F)(F)F)c3)c(C(F)(F)F)nc2n1-c1cncnc1 [Example 99, 2-methyl-6-[1-(2,2,3,3,3-pentafluoropropyl)-1H-pyrazol-4-yl]-1-(pyrimidin-5-yl)-7-(trifluoromethyl)-1H,5H-imidazo[1,2-a]pyrimidin-5-one]	36.1
Cc1cn2c(=O)c(-c3cnn(CC(F)(F)C(F)(F)F)c3)c(C(F)(F)F)nc2n1-c1ccccc1 [Example 100, 2-methyl-6-[1-(2,2,3,3,3-pentafluoropropyl)-1H-pyrazol-4-yl]-1-phenyl-7-(trifluoromethyl)-1H,5H-imidazo[1,2-a]pyrimidin-5-one]	4.12
Cc1cn2c(=O)c(-c3cnn(CC(F)(F)C(F)(F)F)c3)c(C(F)(F)F)nc2n1-c1cccc(Cl)n1 [Example 101, 1-(6-chloropyridin-2-yl)-2-methyl-6-[1-(2,2,3,3,3-pentafluoropropyl)-1H-pyrazol-4-yl]-7-(trifluoromethyl)-1H,5H-imidazo[1,2-a]pyrimidin-5-one]	0.397
Cc1cn2c(=O)c(-c3cnn(CC(F)(F)C(F)(F)F)c3)c(C(F)(F)F)nc2n1-c1ccncc1 [Example 102, 2-methyl-6-[1-(2,2,3,3,3-pentafluoropropyl)-1H-pyrazol-4-yl]-1-(pyridin-4-yl)-7-(trifluoromethyl)-1H,5H-imidazo[1,2-a]pyrimidin-5-one]	8.4
Cc1cn2c(=O)c(-c3cnn(CC(F)(F)C(F)(F)F)c3)c(C(F)(F)F)nc2n1-c1cn[nH]c1 [Example 103, 2-methyl-6-[1-(2,2,3,3,3-pentafluoropropyl)-1H-pyrazol-4-yl]-1-(1H-pyrazol-4-yl)-7-(trifluoromethyl)-1H,5H-imidazo[1,2-a]pyrimidin-5-one]	0.301
O=c1c(-c2cnn(CC(F)(F)C(F)(F)F)c2)c(C(F)(F)F)nc2sc(CF)nn12 [Example 104, 2-(fluoromethyl)-6-[1-(2,2,3,3,3-pentafluoropropyl)-1H-pyrazol-4-yl]-7-(trifluoromethyl)-5H-[1,3,4]thiadiazolo[3,2-a]pyrimidin-5-one]	0.1
CN(C)Cc1nn2c(=O)c(-c3cnn(CC(F)(F)C(F)(F)F)c3)c(C(F)(F)F)nc2s1 [Example 105, 2-[(dimethylamino)methyl]-6-[1-(2,2,3,3,3-pentafluoropropyl)-1H-pyrazol-4-yl]-7-(trifluoromethyl)-5H-[1,3,4]thiadiazolo[3,2-a]pyrimidin-5-one]	10.5
CNCc1nn2c(=O)c(-c3cnn(CC(F)(F)C(F)(F)F)c3)c(C(F)(F)F)nc2s1 [Example 106, 2-[(methylamino)methyl]-6-[1-(2,2,3,3,3-pentafluoropropyl)-1H-pyrazol-4-yl]-7-(trifluoromethyl)-5H-[1,3,4]thiadiazolo[3,2-a]pyrimidin-5-one]	61.5
